According to patent US11484599B2, “Polymer conjugate vaccines” (The University of Chicago, priority 2015, dated 2022):

Columns and labels:
TLR7 = molecular target: T1, TLR7 (Homo sapiens, UniProt Q9NYK1); test: HEK-Blue TLR7-activation reporter cell assay; conditions: media with 2.0 μM agonist (polymer: 2.0 μM of TLR7-MA in polymeric form), 12 h
T1 sequence (Q9NYK1 27-1049): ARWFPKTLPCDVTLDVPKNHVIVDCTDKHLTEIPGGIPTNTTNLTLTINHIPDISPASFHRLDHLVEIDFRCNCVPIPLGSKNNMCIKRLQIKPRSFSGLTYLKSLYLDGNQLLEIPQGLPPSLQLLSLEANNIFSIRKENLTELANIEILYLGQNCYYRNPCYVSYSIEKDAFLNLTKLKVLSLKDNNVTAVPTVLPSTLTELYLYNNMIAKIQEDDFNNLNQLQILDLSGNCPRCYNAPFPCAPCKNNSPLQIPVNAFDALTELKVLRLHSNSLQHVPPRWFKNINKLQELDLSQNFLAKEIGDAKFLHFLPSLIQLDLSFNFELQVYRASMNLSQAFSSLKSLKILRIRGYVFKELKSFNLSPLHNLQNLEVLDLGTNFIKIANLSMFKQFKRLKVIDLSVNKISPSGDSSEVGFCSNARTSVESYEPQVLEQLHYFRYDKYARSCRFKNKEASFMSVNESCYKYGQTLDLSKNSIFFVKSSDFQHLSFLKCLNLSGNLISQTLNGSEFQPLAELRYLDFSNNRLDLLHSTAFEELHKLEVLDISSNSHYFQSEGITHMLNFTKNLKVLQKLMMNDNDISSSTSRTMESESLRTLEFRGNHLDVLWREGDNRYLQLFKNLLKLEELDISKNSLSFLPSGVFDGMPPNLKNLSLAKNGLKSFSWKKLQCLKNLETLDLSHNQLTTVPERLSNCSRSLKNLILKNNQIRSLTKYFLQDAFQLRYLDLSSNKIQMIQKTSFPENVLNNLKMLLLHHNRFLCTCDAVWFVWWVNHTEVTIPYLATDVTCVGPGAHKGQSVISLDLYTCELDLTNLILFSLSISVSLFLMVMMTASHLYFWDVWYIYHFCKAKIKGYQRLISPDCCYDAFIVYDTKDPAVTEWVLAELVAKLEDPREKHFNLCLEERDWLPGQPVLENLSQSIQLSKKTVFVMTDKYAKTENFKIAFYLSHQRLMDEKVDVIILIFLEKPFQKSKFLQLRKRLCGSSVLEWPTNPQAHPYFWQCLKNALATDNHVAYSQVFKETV

[1] = system: bone marrow derived dendritic cells (BMDCs); test: Viability / toxicity in treated BMDCs; assay type: cell-based; conditions: 10 μM
From the text: Given that DCs are the primary target for the polymer-conjugates, Applicants treated bone marrow derived dendritic cells (BMDCs) with various concentrations of TLR7-MA, p(man-TLR), or the synthetic oligonucleotide CpG, a powerful TLR-9 agonist.

[2] = system: lymph node resident DC subsets; test: Uptake of fluorescently labeled OVA by lymph node DC subsets after i.d. injection; assay type: in vivo, mice; conditions: 12 h
Method: Mice were treated with an intradermal injection of fluorescently labeled OVA or fluorescently labeled OVA conjugated to either p(Man) or p(Man-TLR). After 12 h, the lymph nodes of the animals were harvested and the cells of the lymph nodes were analyzed for fluorescently labeled OVA content via flow cytometry. Conjugation of OVA to p(Man-TLR) increases the uptake of OVA by CD8+ cross-presenting DCs (a.), CD4+ activating DCs (b.), CD4−/CD8− lymph node resident DCs (c.), and conventional dermal DCs (d.).
It is contemplated that conjugating p(Man-TLR) to antigens will improve their uptake by DCs and increased DC activation. […] After 12 h, the lymph node resident DC subsets of these animals were analyzed for fOVA.

CSP peptide stretches = test: Breadth of IgG response on arrays of peptides from the sequence of CSP; assay type: in vivo, mice
[3] = system: circumsporozite protein (CSP) from Plasmodium falciparum; test: Example 12: vaccination with malaria antigen CSP formulations, cellular and humoral response; assay type: in vivo, mice
Method: FIG. 17: To characterize the response to an actual vaccinal antigen, and to compare to an advanced clinical adjuvant, the inventors made the polymer conjugate formulation with the P. falciparum antigen CSP (the full-length protein).
FIG. 18: To characterize humoral responses to the CSP-p(Man-TLR) polymer conjugate formulation, Tfh cells were characterized in the spleen and IgG concentrations were measured in the blood.
The inventors benchmarked the performance of antigen-p(Man-TLR) conjugates against other vaccine adjuvant formulations that have been reported to produce effective immune responses, using a malaria antigen, specifically circumsporozite protein (CSP) from Plasmodium falciparum. Mice were treated on days 0 and 21 via intradermal injection into the 4 footpads with CSP-p(Man-TLR), CSP and MPLA/QS-21 liposomes (AS01E), CSP and the adjuvant R848, CSP and poly(I:C), or saline (Vehicle). AS01E is used in a clinical malaria vaccine formulation. All animals treated with formulations containing CSP received 10 μg of CSP. Animals treated with CSP-p(Man-TLR) received 20 μg TLR agonist in the polymeric form. Animals treated with AS01E received 2.5 μg of QS21. Animals treated with CSP and R848 were treated with 20 μg of R848. Animals treated with CSP and poly(I:C) received 15 μg poly(I:C). […] CSP-p(Man-TLR) induced a robust humoral response.

C=C(C)C(=O)NCCOC(=O)NCc1ccc(Cn2c(COCC)nc3c(N)nc4ccccc4c32)cc1 [TLR7-MA, 2-methacrylamidoethyl 4-((4-amino-2-(ethoxymethyl)-1H-imidazo[4,5-c]quinolin-1-yl)methyl)benzylcarbamate]
increase in TLR7 activation (TLR7): 4 fold
cell viability / toxicity [1]: no significant decrease in viability

fOVA-p(Man-TLR): fluorescently labeled Ovalbumin (fOVA) conjugated to p(Man-TLR)
fOVA positive CD8+ cross presenting DCs vs fOVA ([2]; FIG. 9A): More than twice as many
increase in number of CD4 activating DCs positive for fOVA vs fOVA ([2]; FIG. 9B): 3 fold
targeting of double negative DCs and dermal conventional DCs vs free fOVA ([2]; FIG. 9C-D): able to target both double negative DCs and dermal conventional DCs
OVA uptake by DCs vs fOVA ([2]; lymph node DCs): took up significantly more OVA

B1: CSP-p(Man-TLR): P. falciparum circumsporozite protein (CSP, full-length) conjugated to p(Man-TLR) (conjugate, UniProt P02893 1-412, looked up)
chain: MMRKLAILSVSSFLFVEALFQEYQCYGSSSNTRVLNELNYDNAGTNLYNELEMNYYGKQENWYSLKKNSRSLGENDDGNNNNGDNGREGKDEDKRDGNNEDNEKLRKPKHKKLKQPGDGNPDPNANPNVDPNANPNVDPNANPNVDPNANPNANPNANPNANPNANPNANPNANPNANPNANPNANPNANPNANPNANPNANPNANPNVDPNANPNANPNANPNANPNANPNANPNANPNANPNANPNANPNANPNANPNANPNANPNANPNANPNANPNANPNANPNKNNQGNGQGHNMPNDPNRNVDENANANNAVKNNNNEEPSDKHIEQYLKKIKNSISTEWSPCSVTCGNGIQVRIKPGSANKPKDELDYENDIEKKICKMEKCSSVFNVVNSSIGLIMVLSFLFLN
modifications: full-length p(Man-TLR) polymer conjugate
highest value in the plot of antibody response to CSP regions (CSP peptide stretches; FIG. 21): approx. 60000 units
breadth of IgG response (CSP peptide stretches; antibodies binding to CSP peptide arrays): induced a broader and/or qualitatively distinct IgG response
IFNγ+CD8+ cells in the lymph nodes vs CSP and R848 and CSP and AS01E ([3]; days 0 and 21): induced more IFNγ+CD8+ cells in the lymph nodes
splenic T follicular helper cells and total IgG response in the blood vs other treatments ([3]; days 0 and 21): generated more splenic T follicular helper cells and a more robust total IgG response in the blood
IFNγ+ and TNFα+ CD4+ T cells in the spleen vs other therapies ([3]; intradermal, 4 footpads, days 0 and 21, 10 μg CSP, 20 μg TLR agonist): induces more IFNγ+ and TNFα+ cCD4+ T cells in the spleen
